Data from patent US20070232492A1, “Herbicidal Composition” (Ishihara Sangyo Kaisha, LTD., priority 2004, published 2007).
Where two headings read alike, the source gives them in different places.

Key:
Type in all cases: in vivo
[1] = test system: barnyardgrass (Echinochloa oryzicola vasing); experiment: Growth inhibition of barnyardgrass in paddy soil pots, application under submerged condition, visual rating (observed value) and Colby expected value; details: for inhibition at 500 g/ha: 5 g/a; for inhibition at 1000 g/ha: 10 g/a
Text: (§1) When the herbicidal activity in a case where two active ingredients are combined, is larger than the simple sum of the respective herbicidal activities of the two active ingredients (the expected activity), it is called a synergistic effect. The activity expected by the combination of two active ingredients can be calculated as follows (Colby S. R., “Weed”, vol. 15, p. 20-22, 1967). E=p+q−(p×q÷100) where p: growth inhibition rate when treated with x (g/a) of herbicide X,
(§2) q: growth inhibition rate when treated with y (g/a) of herbicide Y,
(§3) E: growth inhibition rate expected when treated with x (g/a) of herbicide X and y (g/a) of herbicide Y.
(§4) Namely, when the actual growth inhibition rate (observed value) is larger than the growth inhibition rate by the above calculation (expected value), the activity by the combination can be regarded as showing a synergistic effect.
Paddy field soil was put into a 1/10,000 are pot, and seeds of barnyardgrass (Echinochloa oryzicola vasing) were sown and left to stand under an irrigated condition with a water depth of 3.5 cm. When barnyardgrass reached 2.0 to 2.5 leaf stage, wettable powders of compound A2 and compound (B1.1) were, respectively, diluted with water and applied under submerged condition so that the active ingredients became the prescribed amounts, respectively. The state of growth was visually observed 21 days after application, and the growth inhibition rate (%) evaluated in accordance with the following evaluation standard (observed value) and the growth inhibition rate (%) calculated by the above-mentioned Colby method (expected value) are shown in Table 1.
(§5) Growth inhibition rate (%)=0% (equivalent to the non-treated area) to 100% (complete kill)
(§6) Paddy field soil was put into a 1/10,000 are pot, and seeds of barnyardgrass (Echinochloa oryzicola vasing) were sown and left to stand under an irrigated condition with a water depth of 3.5 cm. When barnyardgrass reached 2.0 to 2.5 leaf stage, wettable powders of compound A2 and compound (B2.1) were, respectively, diluted with water and applied under submerged condition so that the active ingredients became the prescribed amounts, respectively. The state of growth was visually observed 21 days after application, and evaluation and calculation were carried out in the same manner as in the above Test Example 1.
as §6, with “leaf stage, a wettable powder” for “leaf stage, wettable powders”, “a wettable powder of compound” for “stage, wettable powders of compound”, “A2 and an emulsifiable concentrate of compound (B3.1)” for “A2 and compound (B2.1)”, “of compound (B3.1) were, respectively,” for “and compound (B2.1) were, respectively,”
as §6, with “(B4.1)” for “(B2.1)”
Paddy field soil was put into a 1/10,000 are pot, and seeds of barnyardgrass (Echinochloa oryzicola vasing) were sown and left to stand under an irrigated condition with a water depth of 3.5 cm. […]

[2] = test system: flatsedge (Cyperus serotinus); experiment: Growth inhibition of flatsedge (planted tubers) in paddy soil pots, application under submerged condition, visual rating and Colby expected value
Text: as §1, §2, §3, §4, §5
(§7) Paddy field soil was put into a 1/10,000 are pot, and tubers of flatsedge (Cyperus serotinus) were planted and left to stand under an irrigated condition with a water depth of 3.5 cm. When flatsedge reached 2.8 to 3.2 leaf stage, wettable powders of compound A2 and compound (B1.2) were, respectively, diluted with water and applied under submerged condition so that the active ingredients became the prescribed amounts, respectively. The state of growth was visually observed 29 days after application, and evaluation and calculation were carried out in the same manner as in the above Test Example 1.
Paddy field soil was put into a 1/3,000 are pot, and tubers of flatsedge (Cyperus serotinus) were planted and left to stand under an irrigated condition with a water depth of 3.5 cm. When flatsedge reached 4 leaf stage, a wettable powder of compound A2 and an emulsifiable concentrate of compound C4 were, respectively, diluted with water and applied under submerged condition so that the active ingredients became the prescribed amounts, respectively. The state of growth was visually observed 21 days after application, and the growth inhibition rate (%) evaluated in the same manner as in the above Test Example 1 (observed value) and the growth inhibition rate (%) calculated by the above-mentioned Colby method (expected value) are shown in Table 32.
as §7, with “2.5” for “2.8”, “3.0” for “3.2”, “A2, compound (D2.3)” for “A2”, “(B4.1)” for “(B1.2)”, “30” for “29”, “evaluated” for “evaluation and calculation were carried out”
as §7, with “2.5” for “2.8”, “3.0” for “3.2”, “A2, compound (D2.3)” for “A2”, “(B6.1)” for “(B1.2)”, “30” for “29”, “evaluated” for “evaluation and calculation were carried out”
Paddy field soil was put into a 1/10,000 are pot, and tubers of flatsedge (Cyperus serotinus) were planted and left to stand under an irrigated condition with a water depth of 3.5 cm. When flatsedge reached 2.5 to 3.0 leaf stage, wettable powders of compound A2, compound (D2.3) and compound (B8.1) were, respectively, diluted with water and applied under submerged condition so that the active ingredients became the prescribed amounts, respectively. […]

[3] = test system: Japanese bulrush (Scirpus juncoides); experiment: Growth inhibition of Japanese bulrush in paddy soil pots, application under submerged condition, visual rating and Colby expected value; details: 2 leaf stage, 19 days after application
Text: as §1, §2, §3, §4, §5
(§8) Paddy field soil was put into a 1/10,000 are pot, and seeds of Japanese bulrush (Scirpus juncoides) were sown and left to stand under an irrigated condition with a water depth of 3.5 cm. When Japanese bulrush reached 2.3 to 2.6 leaf stage, a wettable powder of compound A2 and granules of compound (B7.1) were, respectively, diluted with water and applied under submerged condition so that the active ingredients became the prescribed amounts, respectively. The state of growth was visually observed 10 days after application, and evaluation and calculation were carried out in the same manner as in the above Test Example 1.
as §8, with “an emulsifiable concentrate” for “granules”, “(B3.1)” for “(B7.1)”
(§9) Paddy field soil was put into a 1/10,000 are pot, and seeds of Japanese bulrush (Scirpus juncoides) were sown and left to stand under an irrigated condition with a water depth of 3.5 cm. When Japanese bulrush reached 2 leaf stage, wettable powders of compound A2, C2 and C4 and granules of compound C6 were, respectively, diluted with water and applied under submerged condition so that the active ingredients became the prescribed amounts, respectively.
Paddy field soil was put into a 1/10,000 are pot, and seeds of Japanese bulrush (Scirpus juncoides) were sown and left to stand under an irrigated condition with a water depth of 3.5 cm. When Japanese bulrush reached 2 leaf stage, wettable powders of compound A2, C2 and C4 and granules of compound C6 were, respectively, diluted with water and applied under submerged condition so that the active ingredients became the prescribed amounts, respectively. The state of growth was visually observed 19 days after application, and the growth inhibition rate (%) evaluated in the same manner as in the above Test Example 1 (observed value) and the growth inhibition rate (%) calculated by the above-mentioned Colby method (expected value) are shown in Tables 36, 37 and 38.
as §9, with “3” for “2”, “A2” for “A2, C2”, “and” for “and C4 and granules of”, “(D2.2)” for “C6”, “respectively. […]” for “respectively.”

[4] = Echinochloa oryzicola, soil, 336 h, 2.8 to 3.4 leaf stage, 14 days after application, Test Examples 66-72, read-out: Growth inhibition rate (%) Observed
[5] = Echinochloa oryzicola, soil, 504 h, 2.0 to 2.5 leaf stage, 21 days after application, read-out: Growth inhibition rate (%) Observed

COc1ccsc1CN(C(=O)CCl)c1c(C)cccc1C [Compound (B3.2), thenylchlor]
inhibition at 93.8 g/ha ([1]; Echinochloa oryzicola, soil, 504 h, 0.938 g/a, 2.8 to 3.2 leaf stage, 21 days after application, read-out: Growth inhibition rate (%) Observed): 5% | inhibition at 94 g/ha ([1]; Echinochloa oryzicola, soil, 504 h, 0.94 g/a, 2.8 to 3.2 leaf stage, 21 days after application, Test Examples 39-43, read-out: Growth inhibition rate (%) Observed): 0% | inhibition at 187.5 g/ha ([1]; Echinochloa oryzicola, soil, 504 h, 1.875 g/a, 2.8 to 3.2 leaf stage, 21 days after application, read-out: Growth inhibition rate (%) Observed): 27% | inhibition at 188 g/ha ([1]; Echinochloa oryzicola, soil, 504 h, 1.88 g/a, 2.8 to 3.2 leaf stage, 21 days after application, Test Examples 39-43, read-out: Growth inhibition rate (%) Observed): 15% | inhibition at 250 g/ha ([2]; Cyperus serotinus, soil, 720 h, 2.5 g/a, 2.5 to 3.0 leaf stage, 30 days after application, Test Examples 46-60, read-out: Growth inhibition rate (%) Observed): 35%

CS(=O)(=O)c1ccc(C(=O)C2=C(Sc3ccccc3)C3CCC(C3)C2=O)c(Cl)c1 (stereo not drawn) [Compound (B4.1), benzobicyclon]
inhibition at 100 g/ha ([1]; Echinochloa oryzicola, soil, 504 h, 1 g/a, 2.0 to 2.5 leaf stage, 21 days after application, read-out: Growth inhibition rate (%) Observed): 13% | inhibition at 200 g/ha ([1]; Echinochloa oryzicola, soil, 504 h, 2 g/a, 2.0 to 2.5 leaf stage, 21 days after application, read-out: Growth inhibition rate (%) Observed): 33% | inhibition at 200 g/ha ([2]; Cyperus serotinus, soil, 720 h, 2 g/a, 2.5 to 3.0 leaf stage, 30 days after application, Test Examples 46-60, read-out: Growth inhibition rate (%) Observed): 60%

CC(C)(NC(=O)C(Br)C(C)(C)C)c1ccccc1 (stereo not drawn) [Compound (B6.1), bromobutide]
inhibition at 500 g/ha [1, 4]: 10% | inhibition at 1000 g/ha [1, 4]: 10% | inhibition at 500 g/ha [1, 5]: 0% | inhibition at 1000 g/ha [1, 5]: 10% | inhibition at 1000 g/ha ([2]; Cyperus serotinus, soil, 720 h, read-out: Growth inhibition rate (%) Observed): 35%

CCN(CC)C(=O)n1cnc(S(=O)(=O)c2c(C)cc(C)cc2C)n1 [Compound (B9.1), cafenstrole]
Growth inhibition rate (%) Observed ([1]; 0.525 g/a, 2.8 to 3.2 leaf stage, 21 days after application): 2% | Growth inhibition rate (%) Observed ([1]; 0.788 g/a, 2.1 to 3.2 leaf stage, 21 days after application): 57% | Growth inhibition rate (%) Observed ([1]; 0.788 g/a, 2.8 to 3.2 leaf stage, 19 days after application, Test Examples 62-65): 10% | Growth inhibition rate (%) Observed ([1]; 1.05 g/a, 2.8 to 3.2 leaf stage, 21 days after application): 10% | Growth inhibition rate (%) Observed ([1]; 1.58 g/a, 2.8 to 3.2 leaf stage, 19 days after application, Test Examples 62-65): 10% | Growth inhibition rate (%) Observed ([2]; 2.1 g/a, 2.5 to 3.0 leaf stage, 30 days after application, Test Examples 46-60): 35%

CCC1(CC2(c3cccc(Cl)c3)CO2)C(=O)c2ccccc2C1=O (stereo not drawn) [Compound (B10.1), indanofan]
inhibition at 37.5 g/ha ([1]; Echinochloa oryzicola, soil, 504 h, 0.375 g/a, 2.8 to 3.2 leaf stage, 21 days after application, read-out: Growth inhibition rate (%) Observed): 0% | inhibition at 75 g/ha ([1]; Echinochloa oryzicola, soil, 504 h, 0.75 g/a, 2.8 to 3.2 leaf stage, 21 days after application, read-out: Growth inhibition rate (%) Observed): 13% | inhibition at 56.3 g/ha ([1]; Echinochloa oryzicola, soil, 528 h, 0.563 g/a, 2.1 to 3.2 leaf stage, 22 days after application, read-out: Growth inhibition rate (%) Observed): 40% | inhibition at 150 g/ha ([2]; Cyperus serotinus, soil, 720 h, 1.5 g/a, 2.5 to 3.0 leaf stage, 30 days after application, Test Examples 46-60, read-out: Growth inhibition rate (%) Observed): 25%

CCOC(=O)CCCOc1ccc(Cl)cc1C [Compound C4, MCPB ethyl]
Growth inhibition rate (%) Observed ([3]; 0.5 g/a, Test Example 33): 10% | Growth inhibition rate (%) Observed ([3]; 1.0 g/a, Test Example 33): 27% | Growth inhibition rate (%) Observed ([3]; 1.5 g/a, Test Example 34): 20% | Growth inhibition rate (%) Observed ([3]; 2.0 g/a, Test Example 33): 55% | Growth inhibition rate (%) Observed ([3]; 10 g/a, Test Example 34): 68% | Growth inhibition rate (%) Observed ([2]; 2.0 g/a, 4 leaf stage, 21 days after application): 33% | Growth inhibition rate (%) Observed ([2]; 2.4 g/a, 4 leaf stage, 21 days after application): 57%
